{"source": "ChEMBL document CHEMBL3886531", "about": "“Dihydropyrrolopyrimidine derivatives” (2016)", "target": "PI3-kinase p110-alpha/p85-alpha (Homo sapiens, UniProt P42336)", "sequence (P27986 whole entry)": "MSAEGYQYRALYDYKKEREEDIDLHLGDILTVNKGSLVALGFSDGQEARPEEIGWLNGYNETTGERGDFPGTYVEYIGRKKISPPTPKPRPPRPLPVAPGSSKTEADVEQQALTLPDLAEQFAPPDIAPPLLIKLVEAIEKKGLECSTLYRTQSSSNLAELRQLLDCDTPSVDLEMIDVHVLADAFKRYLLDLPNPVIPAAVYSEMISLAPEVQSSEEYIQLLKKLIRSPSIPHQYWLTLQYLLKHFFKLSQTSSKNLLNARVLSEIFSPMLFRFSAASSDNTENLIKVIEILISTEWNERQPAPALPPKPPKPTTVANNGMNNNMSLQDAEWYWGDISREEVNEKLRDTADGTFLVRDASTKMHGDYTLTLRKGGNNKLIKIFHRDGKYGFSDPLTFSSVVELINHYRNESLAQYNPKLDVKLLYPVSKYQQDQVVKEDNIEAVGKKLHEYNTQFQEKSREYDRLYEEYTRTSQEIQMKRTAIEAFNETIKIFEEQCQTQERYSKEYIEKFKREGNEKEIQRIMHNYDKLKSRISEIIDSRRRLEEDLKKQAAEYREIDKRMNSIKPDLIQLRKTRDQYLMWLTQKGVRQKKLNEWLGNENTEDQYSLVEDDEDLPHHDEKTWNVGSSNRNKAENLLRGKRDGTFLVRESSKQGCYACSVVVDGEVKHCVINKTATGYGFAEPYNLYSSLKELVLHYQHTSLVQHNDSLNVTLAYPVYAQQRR", "sequence (P42336 whole entry)": "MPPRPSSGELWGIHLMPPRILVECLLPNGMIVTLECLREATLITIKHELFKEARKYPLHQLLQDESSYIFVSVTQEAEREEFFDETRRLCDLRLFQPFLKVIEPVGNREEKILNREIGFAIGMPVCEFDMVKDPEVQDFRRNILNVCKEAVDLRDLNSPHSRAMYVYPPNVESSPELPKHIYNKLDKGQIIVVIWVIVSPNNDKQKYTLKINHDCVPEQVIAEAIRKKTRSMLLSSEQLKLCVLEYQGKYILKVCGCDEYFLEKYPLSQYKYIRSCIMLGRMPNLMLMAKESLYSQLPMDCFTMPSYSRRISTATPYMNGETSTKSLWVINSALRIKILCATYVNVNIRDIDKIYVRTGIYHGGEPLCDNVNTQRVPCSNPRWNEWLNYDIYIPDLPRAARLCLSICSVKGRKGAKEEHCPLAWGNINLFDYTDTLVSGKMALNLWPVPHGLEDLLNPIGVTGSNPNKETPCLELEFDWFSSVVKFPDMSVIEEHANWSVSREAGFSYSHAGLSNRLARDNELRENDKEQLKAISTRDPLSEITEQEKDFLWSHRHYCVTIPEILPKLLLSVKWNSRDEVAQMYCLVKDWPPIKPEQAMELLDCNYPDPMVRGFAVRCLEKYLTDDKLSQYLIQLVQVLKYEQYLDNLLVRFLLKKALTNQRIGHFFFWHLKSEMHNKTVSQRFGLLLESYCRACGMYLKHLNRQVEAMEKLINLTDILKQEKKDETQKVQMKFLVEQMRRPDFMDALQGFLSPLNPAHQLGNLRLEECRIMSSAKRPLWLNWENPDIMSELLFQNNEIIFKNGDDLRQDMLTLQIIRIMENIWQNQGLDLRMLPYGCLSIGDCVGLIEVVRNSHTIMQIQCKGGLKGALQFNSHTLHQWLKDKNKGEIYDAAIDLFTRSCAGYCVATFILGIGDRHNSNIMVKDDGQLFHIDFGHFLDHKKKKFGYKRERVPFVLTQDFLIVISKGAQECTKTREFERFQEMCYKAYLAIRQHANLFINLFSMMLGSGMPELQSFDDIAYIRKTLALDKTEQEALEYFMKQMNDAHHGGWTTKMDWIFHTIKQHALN", "experiment": "Biochemical Assay: PI3KA_FL: Genes encoding for full length p110alpha and p85alpha subunits of PI3Kalpha complex were subcloned from existing constructs into pFASTBAC Dual vector (Life Technologies, Carlsbad, Calif.) using standard cloning procedures. Gene encoding p110alpha subunit was subcloned into polyhedrine promoter while gene encoding p85alpha subunit was subcloned into p10 promoter. Additionally, sequence encoding for histidine tag and Tobacco Etch Virus (\"TEV\") cleavage site preceded p110alpha ORF (Open Reading Frame). The biochemical assays of kinase activity of full-length PI3Kalpha (full-length p110alpha/p85a) or truncated PI3Kalpha (p110alpha/iSH2 p85a) were conducted using a fluorescence polarization format similar to the procedure of Yuan J., et al., (2011) PF-04691502, a Potent and Selective Oral Inhibitor of PI3K and mTOR Kinases with Antitumor Activity, Mol Cancer Ther. 10, 2189-2199. The enzymatic reactions were conducted in 50 uL volumes in 96-well plates.", "type": "protein-complex assay", "note": "pKi: −log10 of the molar value.", "data": [{"smiles": "CC(=O)N[C@H]1C(C)(C)[C@H](N2CCc3c(-c4cnc(N)nc4)nc(N4CCOCC4)nc32)C1(C)C", "values": [{"measurement": "pKi", "value": 8.94}]}]}
